Test results reported in patent US20060069132A1, “Azolecarboxamide herbicides” (priority 2004, published 2006).

Assays:
barnyardgrass [1] = experiment: Test A pre-/postemergence herbicide test; format: in vivo, Echinochloa crus-galli
Summary of the method: (§1)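 Both application timings were run together: directed soil spray over freshly planted seeds in sandy loam, and runoff spray onto 2–10 cm seedlings. Evaluation after ~10 days in greenhouse used a 0–100 visual scale versus untreated controls.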

large crabgrass [2] = experiment: Test A pre-/postemergence herbicide test; format: in vivo, Digitaria sanguinalis
Summary of the method: as §1

giant foxtail [3] = experiment: Test A pre-/postemergence herbicide test; format: in vivo, Setaria faberi
Summary of the method: as §1

morningglory [4] = experiment: Test A pre-/postemergence herbicide test; format: in vivo, Ipomoea spp.
Summary of the method: as §1

redroot pigweed = experiment: Test A pre-/postemergence herbicide test; format: in vivo, Amaranthus retroflexus
Summary of the method: as §1

velvetleaf [5] = experiment: Test A pre-/postemergence herbicide test; format: in vivo, Abutilon theophrasti
Summary of the method: as §1

barnyardgrass [6] = experiment: Test B pre-/postemergence herbicide test; format: in vivo, Echinochloa crus-galli
Summary of the method: (§2)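 Plants compared with untreated controls 13–15 days post-treatment and given a visual 0–100 injury score. Applications: preemergence to seeds; postemergence at 1- to 4-leaf (2–18 cm); paddy species flooded, 2-leaf stage. Vehicle non-phytotoxic, surfactant included.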

Surinam grass = experiment: Test B pre-/postemergence herbicide test; format: in vivo, Urochloa decumbens
Summary of the method: (§3)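 Visual rating, 0 (no effect) to 100 (complete control), versus untreated controls after 13–15 d in greenhouse. Pre- and postemergence applications (postemergence plants 2–18 cm, 1–4 leaves); flooded paddy arm at 2-leaf stage. Compounds in non-phytotoxic solvent plus surfactant.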

cocklebur = experiment: Test B pre-/postemergence herbicide test; format: in vivo, Xanthium strumarium
Summary of the method: as §2

corn = experiment: Test B pre-/postemergence herbicide test; format: in vivo, Zea mays
Summary of the method: as §3

large crabgrass [7] = experiment: Test B pre-/postemergence herbicide test; format: in vivo, Digitaria sanguinalis
Summary of the method: as §3

giant foxtail [8] = experiment: Test B pre-/postemergence herbicide test; format: in vivo, Setaria faberi
Summary of the method: as §3

lambsquarters = experiment: Test B pre-/postemergence herbicide test; format: in vivo, Chenopodium album
Summary of the method: as §3

morningglory [9] = experiment: Test B pre-/postemergence herbicide test; format: in vivo, Ipomoea coccinea
Summary of the method: as §2

pigweed = experiment: Test B pre-/postemergence herbicide test; format: in vivo, Amaranthus retroflexus
Summary of the method: as §3

rice [10] = experiment: Test B pre-/postemergence herbicide test; format: in vivo, Oryza sativa; settings: preemergence
Summary of the method: as §3

velvetleaf [11] = experiment: Test B pre-/postemergence herbicide test; format: in vivo, Abutilon theophrasti
Summary of the method: as §3

blackgrass = experiment: Test B postemergence herbicide test; format: in vivo, Alopecurus myosuroides; settings: scale 0 (no effect) to 100 (complete control)
Summary of the method: (§4)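 Formulated test chemicals went onto postemergence plants measuring 2 to 18 cm, at one to four leaves. For the paddy assay, species had reached two leaves. Scoring took place 13–15 days later by eye, relative to untreated plants, using 0 for no effect up to 100 for full control.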

wheat = experiment: Test B postemergence herbicide test; format: in vivo, Triticum aestivum; set-up: key to Wheat plant response rating: 0 = no effect, 100 = complete control; settings: scale 0 (no effect) to 100 (complete control)
Summary of the method: (§5)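 Plants grow to 1- to 4-leaf stage (2–18 cm) for postemergence spraying, or to 2-leaf stage for the paddy test. Formulated compound is applied. Greenhouse holding lasts 13–15 days. Response is scored visually relative to controls, 0 no effect to 100 complete control; a dash means no result.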

wild oat = experiment: Test B postemergence herbicide test; format: in vivo, Avena fatua; settings: scale 0 (no effect) to 100 (complete control)
Summary of the method: as §5

rice [12] = experiment: Test B flooded paddy test; format: in vivo, Oryza sativa; settings: 1000 g ai/ha, visual rating, scale 0 to 100 (0 no effect, 100 complete control), 13 to 15 days
Summary of the method: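 Read-out: visual comparison with controls, scored 0 to 100, where 100 means complete control and 0 no effect. Formulated chemicals were applied postemergence to plants 2–18 cm tall (1- to 4-leaf), or to flooded-paddy plants at the 2-leaf stage, then held 13 to 15 days under glass.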

[13] = tested on: small flower umbrella sedge; experiment: Test B flooded paddy test; format: in vivo, Cyperus difformis; settings: 1000 g ai/ha, visual rating, scale 0 to 100 (0 no effect, 100 complete control), 13 to 15 days
Summary of the method: as §4

ducksalad = experiment: Test B flooded paddy test; format: in vivo, Heteranthera limosa; settings: 1000 g ai/ha, visual rating, scale 0 to 100 (0 no effect, 100 complete control), 13 to 15 days
Summary of the method: as §4

barnyardgrass [14] = experiment: Test B flooded paddy test; format: in vivo, Echinochloa crus-galli; settings: 1000 g ai/ha, visual rating, scale 0 to 100 (0 no effect, 100 complete control), 13 to 15 days
Summary of the method: as §4

[15] = Postemergence, 500 g ai/ha, 0 to 100 scale, 0 no effect, 100 complete control
[16] = Postemergence, 2000 g ai/ha, 0 to 100 scale, 0 no effect, 100 complete control
[17] = Preemergence, 500 g ai/ha, visual rating, 0 to 100 scale (0 no effect, 100 complete control)
[18] = Preemergence, 2000 g ai/ha, 0 to 100 scale, 0 no effect, 100 complete control
[19] = 500 g ai/ha, visual rating 0-100, 0 no effect, 100 complete control, preemergence
[20] = Postemergence, 500 g ai/ha, visual rating after 13 to 15 days, scale 0 (no effect) to 100 (complete control)
[21] = postemergence, 125 g ai/ha, visual rating, scale 0 (no effect) to 100 (complete control)
[22] = preemergence, 125 g ai/ha, 0 to 100 scale, 0 is no effect, 100 is complete control
[23] = Postemergence, 500 g ai/ha, visual rating after 13 to 15 days
[24] = postemergence, 125 g ai/ha, visual rating

CCCOC(=O)c1cccc(NC(=O)c2cc(C(C)(C)C)nn2CC)c1C [Compound 90]
35: Crabgrass, Large plant response rating (large crabgrass [2]; [17]) | Velvetleaf plant response rating (velvetleaf [5]; Preemergence, 2000 g ai/ha, visual rating, 0 to 100 scale (0 no effect, 100 complete control))
80: Plant response rating, Pigweed (pigweed; [19])
50: Barnyardgrass plant response rating (barnyardgrass [1]; [18]) | Plant response rating, Lambsquarters (lambsquarters; [20]) | Lambsquarters plant response rating (lambsquarters; [21]) | Sedge, Umbrella plant response rating [13]
0: Morningglory plant response rating (morningglory [4]; [17]) | Barnyardgrass plant response rating (barnyardgrass [6]; [21]) | Plant response rating, Surinam Grass (Surinam grass; [22]) | Plant response rating, Cocklebur (cocklebur; [19]) | Plant response rating, Cocklebur (cocklebur; [22]) | Plant response rating, Corn (corn; [22]) | Plant response rating, Lambsquarters (lambsquarters; [22]) | Plant response rating, Morningglory (morningglory [9]; [22]) | Plant response rating, Rice (rice [10]; 500 g ai/ha, visual rating 0-100, 0 no effect, 100 complete control) | Plant response rating, Rice (rice [10]; 125 g ai/ha, 0 to 100 scale, 0 is no effect, 100 is complete control) | Plant response rating, Velvetleaf (velvetleaf [11]; [22]) | Blackgrass plant response rating (blackgrass; [24])
15: Crabgrass, Large plant response rating (large crabgrass [2]; [15])
30: Morningglory plant response rating (morningglory [4]; [18]) | Plant response rating, Velvetleaf (velvetleaf [5]; [16]) | Plant response rating, Barnyardgrass (barnyardgrass [6]; [20]) | Pigweed plant response rating (pigweed; [21]) | Plant response rating, Velvetleaf (velvetleaf [11]; [20]) | Plant response rating, Oat, Wild (wild oat; [23]) | Ducksalad plant response rating (ducksalad)
60: Foxtail, Giant plant response rating (giant foxtail [3]; [18]) | Plant response rating, Cocklebur (cocklebur; [20]) | Plant response rating, Foxtail, Giant (giant foxtail [8]; [19])
20: Barnyardgrass plant response rating (barnyardgrass [1]; [15]) | Plant response rating, Barnyardgrass (barnyardgrass [1]; [16]) | Barnyardgrass plant response rating (barnyardgrass [1]; [17]) | Foxtail, Giant plant response rating (giant foxtail [3]; [15]) | Plant response rating, Foxtail, Giant (giant foxtail [3]; [16]) | Pigweed plant response rating (redroot pigweed; [15]) | Velvetleaf plant response rating (velvetleaf [5]; [17]) | Plant response rating, Barnyardgrass (barnyardgrass [6]; [19]) | Plant response rating, Surinam Grass (Surinam grass; [19]) | Plant response rating, Corn (corn; [19]) | Plant response rating, Velvetleaf (velvetleaf [11]; [19])
10: Morningglory plant response rating (morningglory [4]; [15]) | Plant response rating, Morningglory (morningglory [4]; [16]) | Velvetleaf plant response rating (velvetleaf [5]; [15]) | Plant response rating, Barnyardgrass (barnyardgrass [6]; [22]) | Plant response rating, Surinam Grass (Surinam grass; [20]) | Surinam Grass plant response rating (Surinam grass; [21]) | Cocklebur plant response rating (cocklebur; [21]) | Plant response rating, Corn (corn; [20]) | Corn plant response rating (corn; [21]) | Plant response rating, Crabgrass, Large (large crabgrass [7]; [20]) | Crabgrass, Large plant response rating (large crabgrass [7]; [21]) | Plant response rating, Crabgrass, Large (large crabgrass [7]; [22]) | Plant response rating, Foxtail, Giant (giant foxtail [8]; [20]) | Foxtail, Giant plant response rating (giant foxtail [8]; [21]) | Plant response rating, Foxtail, Giant (giant foxtail [8]; [22]) | Plant response rating, Morningglory (morningglory [9]; [19]) | Morningglory plant response rating (morningglory [9]; [21]) | Plant response rating, Pigweed (pigweed; [22]) | Velvetleaf plant response rating (velvetleaf [11]; [21]) | Plant response rating, Blackgrass (blackgrass; [23]) | Plant response rating, Wheat (wheat; [23]) | Wheat plant response rating (wheat; [24]) | Oat, Wild plant response rating (wild oat; [24]) | Rice plant response rating (rice [12]) | Barnyardgrass plant response rating (barnyardgrass [14])
90: Plant response rating, Lambsquarters (lambsquarters; [19])
25: Plant response rating, Crabgrass, Large (large crabgrass [2]; [16]) | Foxtail, Giant plant response rating (giant foxtail [3]; [17]) | Pigweed plant response rating (redroot pigweed; [17])
75: Crabgrass, Large plant response rating (large crabgrass [2]; [18])
70: Pigweed plant response rating (redroot pigweed; [18]) | Plant response rating, Crabgrass, Large (large crabgrass [7]; [19])
40: Plant response rating, Pigweed (redroot pigweed; [16]) | Plant response rating, Morningglory (morningglory [9]; [20]) | Plant response rating, Pigweed (pigweed; [20])
